Calls of active or inactive are those of the source.
Key:
[1] = molecular target: T1, Short transient receptor potential channel 4 (Mus musculus, UniProt Q9QUQ5); test: potentiation of DAMGO-evoked TRPC4 calcium signal – cell-based, HEK293 TRPC4/mu-opioid, Fluo-4 calcium, EC20 DAMGO, dose response (AID 434941); assay type: functional
T1 sequence (Q9QUQ5 whole entry): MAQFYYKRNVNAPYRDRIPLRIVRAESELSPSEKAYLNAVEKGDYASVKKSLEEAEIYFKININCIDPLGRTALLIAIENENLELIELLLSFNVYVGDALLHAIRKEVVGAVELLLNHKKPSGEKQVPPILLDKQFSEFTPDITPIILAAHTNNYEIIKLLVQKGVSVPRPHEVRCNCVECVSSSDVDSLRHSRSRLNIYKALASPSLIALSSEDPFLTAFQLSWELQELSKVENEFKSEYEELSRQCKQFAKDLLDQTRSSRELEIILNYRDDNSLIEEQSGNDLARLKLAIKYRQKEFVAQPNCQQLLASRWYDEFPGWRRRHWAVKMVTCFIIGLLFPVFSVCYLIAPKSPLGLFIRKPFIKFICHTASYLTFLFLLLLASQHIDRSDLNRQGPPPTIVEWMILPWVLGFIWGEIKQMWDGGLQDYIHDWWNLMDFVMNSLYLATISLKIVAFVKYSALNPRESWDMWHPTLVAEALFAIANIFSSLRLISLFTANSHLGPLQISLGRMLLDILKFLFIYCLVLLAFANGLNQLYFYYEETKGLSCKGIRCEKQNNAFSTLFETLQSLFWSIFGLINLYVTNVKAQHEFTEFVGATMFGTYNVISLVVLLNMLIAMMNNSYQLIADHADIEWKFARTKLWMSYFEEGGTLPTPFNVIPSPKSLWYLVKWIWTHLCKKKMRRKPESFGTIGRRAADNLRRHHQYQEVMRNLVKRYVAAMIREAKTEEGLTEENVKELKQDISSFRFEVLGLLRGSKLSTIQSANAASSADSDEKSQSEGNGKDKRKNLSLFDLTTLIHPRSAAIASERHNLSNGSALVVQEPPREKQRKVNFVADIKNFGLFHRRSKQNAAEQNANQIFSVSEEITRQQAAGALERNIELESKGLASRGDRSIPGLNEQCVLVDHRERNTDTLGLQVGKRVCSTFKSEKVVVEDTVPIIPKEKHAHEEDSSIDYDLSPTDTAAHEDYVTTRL

[2] = molecular target: T2, Eukaryotic translation initiation factor 2-alpha kinase 3 (Homo sapiens, UniProt Q9NZJ5); test: Dose response cell-based high-throughput screening assay to measure PERK inhibition. [Related pubchem assays: 1416 ]; assay type: functional
T2 sequence (Q9NZJ5 whole entry): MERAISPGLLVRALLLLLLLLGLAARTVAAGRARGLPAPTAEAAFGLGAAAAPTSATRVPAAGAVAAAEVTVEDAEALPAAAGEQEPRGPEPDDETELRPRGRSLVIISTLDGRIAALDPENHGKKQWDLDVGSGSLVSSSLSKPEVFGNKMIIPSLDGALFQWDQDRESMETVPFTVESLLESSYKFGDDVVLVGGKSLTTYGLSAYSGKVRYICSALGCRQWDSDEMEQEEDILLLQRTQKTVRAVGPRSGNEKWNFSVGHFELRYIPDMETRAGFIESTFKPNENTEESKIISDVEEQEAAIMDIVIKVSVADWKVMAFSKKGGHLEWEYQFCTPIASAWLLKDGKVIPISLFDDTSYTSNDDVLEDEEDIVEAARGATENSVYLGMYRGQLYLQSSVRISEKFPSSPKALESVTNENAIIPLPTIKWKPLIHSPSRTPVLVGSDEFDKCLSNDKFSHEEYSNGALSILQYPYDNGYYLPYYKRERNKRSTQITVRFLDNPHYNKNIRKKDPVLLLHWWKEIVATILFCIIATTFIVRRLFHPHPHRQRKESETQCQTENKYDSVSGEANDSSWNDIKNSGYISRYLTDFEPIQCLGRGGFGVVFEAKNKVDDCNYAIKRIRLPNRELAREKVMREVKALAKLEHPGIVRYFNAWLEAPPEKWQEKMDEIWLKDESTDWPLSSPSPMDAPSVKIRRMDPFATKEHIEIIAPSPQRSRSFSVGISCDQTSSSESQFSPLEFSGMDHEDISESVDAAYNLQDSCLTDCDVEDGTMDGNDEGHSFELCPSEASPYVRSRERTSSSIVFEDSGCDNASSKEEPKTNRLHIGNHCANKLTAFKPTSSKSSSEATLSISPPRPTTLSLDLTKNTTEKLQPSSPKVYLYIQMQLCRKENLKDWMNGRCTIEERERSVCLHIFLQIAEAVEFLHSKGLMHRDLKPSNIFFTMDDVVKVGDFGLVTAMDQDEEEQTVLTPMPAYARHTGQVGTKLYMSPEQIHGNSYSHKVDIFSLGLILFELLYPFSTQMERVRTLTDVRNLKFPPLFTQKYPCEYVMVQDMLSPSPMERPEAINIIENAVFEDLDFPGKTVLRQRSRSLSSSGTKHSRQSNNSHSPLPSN

[3] = molecular target: T2, Eukaryotic translation initiation factor 2-alpha kinase 3; test: Counterscreen assay for PERK inhibitors: Dose response cell-based high throughput screening assay to measure inhibition of PERK at 6 hours. [Related pubchem assays: 1522, 1416 ]; assay type: functional
[4] = THP-1 cell cytotoxicity, dose response, cytotoxicity control for non-replicating M. tuberculosis project (AID 489025); assay type: functional
[5] = HepG2 cell cytotoxicity, dose response, cytotoxicity control for non-replicating M. tuberculosis project (AID 489018); assay type: functional; details: Mycobacterium tuberculosis
[6] = Vero E6 cell cytotoxicity, dose response, cytotoxicity control for non-replicating M. tuberculosis project, secondary assay (AID 492998); assay type: functional, VeroE6; details: Vero C1008
[7] = molecular target: G-protein coupled receptor 55 (Homo sapiens, UniProt Q9Y2T6); test: selective activators of receptor GPR55 – imaging, U2OS cells, beta-arrestin-GFP redistribution, primary screen (AID 1961); assay type: functional
G-protein coupled receptor 55, sequence (Q9Y2T6 whole entry): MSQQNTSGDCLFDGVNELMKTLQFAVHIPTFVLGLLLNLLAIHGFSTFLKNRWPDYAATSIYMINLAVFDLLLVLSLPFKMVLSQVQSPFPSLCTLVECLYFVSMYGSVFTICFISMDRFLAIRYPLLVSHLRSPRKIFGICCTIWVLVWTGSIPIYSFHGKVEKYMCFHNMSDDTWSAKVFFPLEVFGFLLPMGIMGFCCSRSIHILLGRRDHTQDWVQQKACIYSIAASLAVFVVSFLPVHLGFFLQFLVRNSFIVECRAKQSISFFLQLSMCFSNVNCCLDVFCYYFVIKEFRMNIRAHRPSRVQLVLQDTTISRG

[8] = molecular target: Eukaryotic translation initiation factor 4H (Homo sapiens, UniProt Q15056); test: eIF4H binding inhibition – biochemical, uHTS, fluorescence polarization, translation initiation inhibitor project, primary screen (AID 2012)
[9] = molecular target: Polyadenylate-binding protein 1 (Homo sapiens, UniProt P11940); test: blockers of PABP interaction with poly(A) – biochemical, fluorescence polarization, […] (AID 2014)
Polyadenylate-binding protein 1, sequence (P11940 whole entry): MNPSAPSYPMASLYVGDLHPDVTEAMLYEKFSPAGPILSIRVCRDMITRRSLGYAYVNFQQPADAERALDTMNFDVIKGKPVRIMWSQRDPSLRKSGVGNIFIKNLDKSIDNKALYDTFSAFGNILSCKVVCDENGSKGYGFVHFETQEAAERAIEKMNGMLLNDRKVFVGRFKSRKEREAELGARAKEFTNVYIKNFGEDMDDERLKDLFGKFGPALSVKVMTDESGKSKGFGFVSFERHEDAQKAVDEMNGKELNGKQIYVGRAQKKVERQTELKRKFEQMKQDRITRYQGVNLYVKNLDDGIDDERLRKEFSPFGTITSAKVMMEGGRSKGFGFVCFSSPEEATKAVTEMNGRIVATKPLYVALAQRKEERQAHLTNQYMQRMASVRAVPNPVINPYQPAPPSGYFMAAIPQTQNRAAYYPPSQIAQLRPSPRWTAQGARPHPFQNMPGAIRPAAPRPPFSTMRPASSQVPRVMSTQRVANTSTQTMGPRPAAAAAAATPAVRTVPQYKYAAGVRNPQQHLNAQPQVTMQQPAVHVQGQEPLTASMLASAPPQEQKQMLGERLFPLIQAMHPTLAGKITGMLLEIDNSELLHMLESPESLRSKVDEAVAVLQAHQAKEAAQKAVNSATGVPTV

[10] = HPDE-C7 pancreatic duct cell viability loss – fluorescence, HTS (AID 430); assay type: functional, cell-based; details: Homo sapiens
[11] = viability loss of HPDE-C7K cells – cell-based, fluorescence, HTS, primary screen (AID 431); assay type: functional; details: Homo sapiens
[12] = molecular target: G-protein coupled receptor 35 (Homo sapiens, UniProt Q9HC97); test: inhibition of zaprinast-stimulated GPR35 beta-arrestin translocation – imaging, U2OS, beta-arrestin-GFP, zaprinast agonist, primary screen (AID 2058); assay type: functional;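 note: antagonist potency meaning inhibition of agonist-induced arrestin redistribution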
G-protein coupled receptor 35, sequence (Q9HC97 whole entry, the tested form may be a part): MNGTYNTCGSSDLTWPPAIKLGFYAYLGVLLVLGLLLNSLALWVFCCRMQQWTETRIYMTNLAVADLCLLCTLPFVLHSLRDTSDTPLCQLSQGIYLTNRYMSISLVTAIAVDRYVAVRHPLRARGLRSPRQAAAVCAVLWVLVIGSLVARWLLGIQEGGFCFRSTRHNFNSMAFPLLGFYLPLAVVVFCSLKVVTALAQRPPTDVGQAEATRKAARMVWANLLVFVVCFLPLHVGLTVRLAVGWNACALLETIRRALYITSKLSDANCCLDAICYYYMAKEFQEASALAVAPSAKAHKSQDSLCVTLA

[13] = molecular target: Disintegrin and metalloproteinase domain-containing protein 17 (Homo sapiens, UniProt P78536); test: exosite inhibitors of ADAM17, dose response, biochemical (AID 743260)
Disintegrin and metalloproteinase domain-containing protein 17, sequence (P78536 whole entry, the tested form may be a part): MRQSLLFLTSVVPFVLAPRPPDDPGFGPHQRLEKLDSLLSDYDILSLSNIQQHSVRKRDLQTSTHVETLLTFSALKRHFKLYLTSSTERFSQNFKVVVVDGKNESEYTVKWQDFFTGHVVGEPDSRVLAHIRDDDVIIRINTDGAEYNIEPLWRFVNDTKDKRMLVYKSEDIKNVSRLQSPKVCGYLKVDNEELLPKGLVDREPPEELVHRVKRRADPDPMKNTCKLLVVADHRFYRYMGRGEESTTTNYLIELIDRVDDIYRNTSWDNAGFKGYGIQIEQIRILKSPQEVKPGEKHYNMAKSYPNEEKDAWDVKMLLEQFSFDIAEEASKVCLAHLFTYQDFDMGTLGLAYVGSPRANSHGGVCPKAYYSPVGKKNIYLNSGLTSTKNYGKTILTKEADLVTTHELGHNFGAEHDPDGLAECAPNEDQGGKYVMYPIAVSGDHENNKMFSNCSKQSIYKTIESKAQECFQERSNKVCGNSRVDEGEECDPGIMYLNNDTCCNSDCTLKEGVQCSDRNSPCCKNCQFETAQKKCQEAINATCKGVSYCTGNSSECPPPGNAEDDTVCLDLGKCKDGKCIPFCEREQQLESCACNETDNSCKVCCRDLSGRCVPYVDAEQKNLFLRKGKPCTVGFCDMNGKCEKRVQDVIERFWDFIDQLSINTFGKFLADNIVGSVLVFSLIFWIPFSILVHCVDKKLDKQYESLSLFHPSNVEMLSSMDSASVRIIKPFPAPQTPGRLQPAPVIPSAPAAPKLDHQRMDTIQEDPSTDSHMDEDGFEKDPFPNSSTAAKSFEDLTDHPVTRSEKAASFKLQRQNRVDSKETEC

[14] = inhibition of ADAM10 peptide cleavage – biochemical, FRET peptide substrate, recombinant human ADAM10, selectivity assay for ADAM17 exosite inhibitor project, dose response (AID 743259);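 note: ADAM10 enzyme cleaving a FRET peptide substrate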
[15] = molecular target: T3, Tyrosine-protein phosphatase non-receptor type 7 (Homo sapiens, UniProt P35236); assay type: functional
T3 sequence (P35236 whole entry): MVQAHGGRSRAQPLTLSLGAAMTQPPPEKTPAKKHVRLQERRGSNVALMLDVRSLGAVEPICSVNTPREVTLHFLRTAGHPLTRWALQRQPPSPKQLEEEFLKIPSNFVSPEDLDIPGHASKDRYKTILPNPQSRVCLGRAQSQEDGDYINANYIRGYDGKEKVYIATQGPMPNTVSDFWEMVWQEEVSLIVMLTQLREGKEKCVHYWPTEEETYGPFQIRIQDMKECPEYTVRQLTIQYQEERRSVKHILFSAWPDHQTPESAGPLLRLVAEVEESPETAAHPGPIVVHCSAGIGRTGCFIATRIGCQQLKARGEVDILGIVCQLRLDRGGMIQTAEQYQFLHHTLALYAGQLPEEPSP

[16] = molecular target: Glyceraldehyde-3-phosphate dehydrogenase (Homo sapiens, UniProt P04406)
Glyceraldehyde-3-phosphate dehydrogenase, sequence (P04406 whole entry): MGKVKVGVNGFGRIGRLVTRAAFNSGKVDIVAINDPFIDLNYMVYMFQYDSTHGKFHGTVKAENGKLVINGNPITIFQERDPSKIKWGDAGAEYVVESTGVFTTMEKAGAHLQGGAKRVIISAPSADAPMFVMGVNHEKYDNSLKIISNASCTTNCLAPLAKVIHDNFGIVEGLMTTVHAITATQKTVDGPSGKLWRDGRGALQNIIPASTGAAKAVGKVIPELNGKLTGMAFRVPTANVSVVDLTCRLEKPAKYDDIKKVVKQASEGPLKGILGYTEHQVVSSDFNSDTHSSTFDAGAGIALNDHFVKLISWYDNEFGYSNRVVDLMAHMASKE

[17] = molecular target: T4, Dual specificity protein phosphatase 6 (Rattus norvegicus, UniProt Q64346)
T4 sequence (Q64346 whole entry): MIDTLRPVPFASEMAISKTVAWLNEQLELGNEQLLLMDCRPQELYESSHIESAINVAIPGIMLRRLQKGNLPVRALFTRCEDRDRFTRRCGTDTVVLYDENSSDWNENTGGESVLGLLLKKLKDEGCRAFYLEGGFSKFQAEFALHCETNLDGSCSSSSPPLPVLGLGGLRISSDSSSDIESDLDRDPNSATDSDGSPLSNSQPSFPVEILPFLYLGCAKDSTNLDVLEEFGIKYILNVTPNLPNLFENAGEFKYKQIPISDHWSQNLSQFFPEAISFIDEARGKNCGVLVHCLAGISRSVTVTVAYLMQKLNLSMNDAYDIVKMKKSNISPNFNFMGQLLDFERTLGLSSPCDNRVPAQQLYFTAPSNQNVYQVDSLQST

[18] = molecular target: T4, Dual specificity protein phosphatase 6; assay type: functional
[19] = HEK-293T cell viability reduction – luminescence, B-cell screen hits, cytotoxicity control for BCR NF-kB inhibitor project, dose response (AID 489021); assay type: functional, cell-based;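 note: HEK-293T cells carrying an NF-kB luciferase reporter; cells exposed to compound for about 14 hours before viability readout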
[20] = molecular target: DNA dC->dU-editing enzyme APOBEC-3A (Homo sapiens, UniProt P31941); test: A3A deaminase inhibition for selectivity – biochemical, dose response (AID 504722); assay type: functional
DNA dC->dU-editing enzyme APOBEC-3A, sequence (P31941 whole entry): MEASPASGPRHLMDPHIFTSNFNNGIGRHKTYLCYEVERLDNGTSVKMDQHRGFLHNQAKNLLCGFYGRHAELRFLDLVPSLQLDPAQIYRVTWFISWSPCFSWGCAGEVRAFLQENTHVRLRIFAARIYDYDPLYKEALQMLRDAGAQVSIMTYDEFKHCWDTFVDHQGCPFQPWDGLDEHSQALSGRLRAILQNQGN

[21] = molecular target: DNA dC->dU-editing enzyme APOBEC-3G (Homo sapiens, UniProt Q9HC16); test: Dose Response confirmation of small molecule APOBEC3G DNA Deaminase Inhibitors via a fluorescence-based single-stranded DNA deaminase assay. [Related pubchem assays (depositor defined):AID493012, AID493028]; assay type: functional
DNA dC->dU-editing enzyme APOBEC-3G, sequence (Q9HC16 whole entry): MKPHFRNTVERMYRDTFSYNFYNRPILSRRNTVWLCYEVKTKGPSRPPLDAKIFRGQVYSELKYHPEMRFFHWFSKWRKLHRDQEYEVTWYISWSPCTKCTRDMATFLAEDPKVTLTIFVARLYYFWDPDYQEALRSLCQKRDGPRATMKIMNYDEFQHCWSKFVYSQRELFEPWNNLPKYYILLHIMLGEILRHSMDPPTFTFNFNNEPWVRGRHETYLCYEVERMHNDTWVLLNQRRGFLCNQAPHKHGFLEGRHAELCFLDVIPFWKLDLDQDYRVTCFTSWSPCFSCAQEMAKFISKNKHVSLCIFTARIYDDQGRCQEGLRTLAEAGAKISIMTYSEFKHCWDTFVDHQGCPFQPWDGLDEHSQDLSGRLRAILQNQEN

[22] = molecular target: T3, Tyrosine-protein phosphatase non-receptor type 7; test: redox-active compounds inhibiting HePTP phosphatase – biochemical, fluorescence, mechanism study (AID 2068); assay type: functional
[23] = molecular target: T5, Rac GTPase-activating protein 1 (Homo sapiens, UniProt Q9H0H5); test: blockers of MgcRacGAP-driven Rac1 GTP hydrolysis – biochemical, ADP Hunter fluorescence, primary and confirmatory, confirmation (AID 624330); assay type: functional
T5 sequence (Q9H0H5 whole entry): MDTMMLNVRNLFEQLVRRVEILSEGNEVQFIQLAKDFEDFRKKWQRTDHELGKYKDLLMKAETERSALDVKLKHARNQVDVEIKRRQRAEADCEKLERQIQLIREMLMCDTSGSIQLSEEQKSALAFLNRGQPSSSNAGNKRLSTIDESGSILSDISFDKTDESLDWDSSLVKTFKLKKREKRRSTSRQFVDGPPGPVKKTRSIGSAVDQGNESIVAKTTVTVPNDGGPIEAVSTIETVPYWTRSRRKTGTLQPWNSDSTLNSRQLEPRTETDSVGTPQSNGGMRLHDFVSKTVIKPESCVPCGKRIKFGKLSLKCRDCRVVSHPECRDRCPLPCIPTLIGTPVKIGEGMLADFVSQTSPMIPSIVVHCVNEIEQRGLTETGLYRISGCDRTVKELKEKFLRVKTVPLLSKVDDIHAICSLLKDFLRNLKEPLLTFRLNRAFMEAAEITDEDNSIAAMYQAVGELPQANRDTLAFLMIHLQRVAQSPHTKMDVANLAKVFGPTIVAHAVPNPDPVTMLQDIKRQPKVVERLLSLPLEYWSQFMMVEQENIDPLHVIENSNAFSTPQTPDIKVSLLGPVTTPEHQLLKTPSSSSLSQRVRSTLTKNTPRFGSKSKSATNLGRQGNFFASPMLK

## O=C(CCN1CCN(Cc2ccccc2)CC1)Nc1ccc(OCc2ccccc2)cc1
[1]
  EC50: 0.13 µM (active)

## N#Cc1ccsc1NC(=O)c1ccc(Cl)c([N+](=O)[O-])c1
[2]
  EC50: > 55.7 µM (not active)
[3]
  EC50: > 55.7 µM (not active)
[4]
  CC50: 20.9 µM (active)
[5]
  CC50: > 20 µM (active)
[6]
  CC50: 13.9 µM (active)

## Cc1[nH]c2ccc(-c3nnc(SCC(=O)NCc4ccco4)n3Cc3ccccc3)cc2c1C
[7]
  EC50: 5.78 µM (active)

## CCCC[N+]12C3C[C@H](C4[C@H](O)[C@]5(C[C@@H]41)c1ccccc1N(C)[C@@H]35)[C@H](CC)[C@H]2O (some centres not stated)
[8]
  IC50: > 100 µM (inactive)
[9]
  IC50: 5.27 µM (active)

## CCCCCCn1c(N2CCN(c3ccccc3)CC2)nc2c1c(=O)n(C)c(=O)n2C
[10]
  EC50: > 20 µM (not active)
[11]
  EC50: > 20 µM (not active)
[1]
  EC50: 6.68 µM (active)

## Cc1nc(N2CCCCC2)c2c(C)c(C(=O)Nc3ccc4c(c3)OCCO4)sc2n1
[12]
  IC50: 2.07 µM (active)
[13]
  IC50: > 69.5 µM (inactive)
[14]
  IC50: > 69.5 µM (inactive)

## CCCCCCCCCCCCCCCCCCC=CCCCCCC(=O)O
[15]
  IC50: 0.801 µM (active)
[16]
  IC50: > 100 µM (not active)
[17]
  IC50: > 100 µM (inactive)
[18]
  IC50: > 100 µM (inactive)

## CCC(CC)C(=O)Nc1ccc(Sc2ccc([N+](=O)[O-])cc2)cc1
[19]
  IC50: > 80 µM (inactive)

## CC1Cc2ccccc2N1S(=O)(=O)c1cnc(Cl)c(Cl)c1 (configuration not stated)
[19]
  IC50: > 80 µM (inactive)

## CCn1c(S)nnc1CSc1nc2ccccc2s1
[20]
  IC50: > 100 µM (inactive)
[7]
  EC50: > 32 µM (inactive)
[21]
  IC50: 3.73 µM (active)

## COc1cc(C(=S)NCc2ccc(Cl)c(C)c2)ccc1O
[22]
  IC50: 3.06 µM (active)
[18]
  IC50: > 100 µM (inactive)

## CC1(C)CC2CC(C)(CN2C(=O)Nc2ccc3nc(-c4ccco4)c(-c4ccco4)nc3c2)C1 (configuration not stated)
[22]
  IC50: 2.92 µM (active)

## O=C(O)c1ccc(/C=N/n2cc(-c3ccccc3)nc2S)cc1
[20]
  IC50: > 100 µM (inactive)
[21]
  IC50: 3.33 µM (active)

## Cc1c(O)ccc2c3c(c(=O)oc12)CCCC3
[2]
  EC50: > 55.7 µM (not active)
[3]
  EC50: > 55.7 µM (not active)
[23]
  IC50: 22.5 µM (active)
